Key:
Format in all cases: biochemical
Pim-3 = Pim-3 (Homo sapiens (Human), UniProt Q86V86); test: Pim-3 kinase assay; conditions: 1 mM ATP; read-out: Pim3 IC50
Summary of the method: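 AlphaScreen-type assay: […] Pim-3 phosphorylates 0.05 μM biotin-BAD peptide with 1 mM ATP, 1 h at 25 °C, pH 7.5 Tris buffer with MgCl2 and DTT. EDTA stop with phospho-BAD (Ser112) antibody and donor/acceptor beads, 1 h dark incubation before reading.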

Pim-1 = Pim-1 (Homo sapiens (Human), UniProt P11309); test: Pim-1 kinase assay; conditions: 1 mM ATP; read-out: Pim1 IC50
Method: Supplementation of the STOP buffer with beads and stopping the reactions were done under reduced light. Prior to the stopping reactions STOP buffer with beads was pre-incubated for 1 h in the dark at room temperature. After stopping the reactions, plates were incubated for 1 h in the dark at room temperature before reading on a PHERAstar FS plate reader (BMG Labtech) under reduced light.

Pim-2 = Pim-2 (Homo sapiens (Human), UniProt Q9P1W9); test: Pim-2 kinase assay; conditions: 1 mM ATP; read-out: Pim2 IC50
Pim-2, sequence (Q9P1W9 whole entry): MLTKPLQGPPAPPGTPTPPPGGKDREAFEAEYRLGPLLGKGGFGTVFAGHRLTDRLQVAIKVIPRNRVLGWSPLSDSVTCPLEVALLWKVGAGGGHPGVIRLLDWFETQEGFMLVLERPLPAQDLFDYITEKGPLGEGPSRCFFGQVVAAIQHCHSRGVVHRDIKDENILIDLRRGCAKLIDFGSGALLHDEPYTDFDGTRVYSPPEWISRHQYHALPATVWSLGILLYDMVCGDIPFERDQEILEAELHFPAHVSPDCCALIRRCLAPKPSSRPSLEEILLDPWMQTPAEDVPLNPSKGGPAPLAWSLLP

Pim-1, sequence (P11309 whole entry): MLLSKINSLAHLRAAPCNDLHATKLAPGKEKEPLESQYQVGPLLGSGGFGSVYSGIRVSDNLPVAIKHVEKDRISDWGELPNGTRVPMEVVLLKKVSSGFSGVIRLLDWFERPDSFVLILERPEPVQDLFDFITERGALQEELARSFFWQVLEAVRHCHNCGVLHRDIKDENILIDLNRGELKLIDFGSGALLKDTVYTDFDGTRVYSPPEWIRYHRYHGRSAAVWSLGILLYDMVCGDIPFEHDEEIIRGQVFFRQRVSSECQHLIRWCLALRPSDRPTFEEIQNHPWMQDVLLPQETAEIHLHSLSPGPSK

Compound | IC50 (Pim-3) | IC50 (Pim-1) | IC50 (Pim-2)
Nc1sc(-c2c(F)cccc2F)nc1C(=O)Nc1cnc2c(c1N1C[C@@H](N)C[C@@H](C(F)(F)F)C1)CCC2O (single isomer, unassigned) [44 (Diastereoisomer 1)] | ≤ 100 nM | ≤ 100 nM | ≤ 100 nM
N[C@H]1C[C@@H](C(F)(F)F)CN(c2c(NC(=O)c3ccc(F)c(-c4c(F)cccc4F)n3)cnc3c2CCO3)C1 [Example 43, N-{4-[(3S,5R)-3-amino-5-(trifluoromethyl)piperidin-1-yl]-2,3-dihydrofuro[2,3-b]pyridin-5-yl}-6-(2,6-difluorophenyl)-5-fluoropyridine-2-carboxamide] | ≤ 100 nM | ≤ 100 nM | ≤ 100 nM
C[C@@H]1C[C@H](N)CN(c2c(NC(=O)c3ccc(F)c(-c4c(F)cc(OC5CCCOC5)cc4F)n3)cnc3c2CCC3O)C1 (single isomer, unassigned) [70 (Diastereoisomer 2)] | ≤ 100 nM | ≤ 100 nM | ≤ 100 nM
C[C@H]1CN(c2c(NC(=O)c3ccc(F)c(-c4c(F)cccc4F)n3)cnc3c2CCC3O)C[C@@H](N)C1(C)O (single isomer, unassigned) [63 (Diastereoisomer 1)] | ≤ 100 nM | ≤ 100 nM | ≤ 100 nM
N[C@H]1CCCN(c2c(NC(=O)c3ccc(F)c(-c4c(F)cccc4F)n3)cnc3c2CCC3O)C1 (single isomer, unassigned) [22 (Diastereoisomer 1)] | ≤ 100 nM | ≤ 100 nM | 100 to 1000 nM
C[C@@H]1C[C@H](N)CN(c2c(NC(=O)c3nc(-c4c(F)cccc4F)sc3N)cnc3c2CCC3O)C1 (single isomer, unassigned) [47 (Diastereoisomer 1)] | ≤ 100 nM | ≤ 100 nM | ≤ 100 nM
C[C@H]1CN(c2c(NC(=O)c3ccc(F)c(-c4c(F)cccc4F)n3)cnc3c2CCC3O)C[C@@H](N)C1(C)O (single isomer, unassigned) [63 (Diastereoisomer 3)] | ≤ 100 nM | ≤ 100 nM | ≤ 100 nM
CSc1cc(F)c(-c2nc(C(=O)Nc3cnc4c(c3N3CCC[C@H](N)C3)CCC4O)ccc2F)c(F)c1 (single isomer, unassigned) [58 (Diastereoisomer 1)] | ≤ 100 nM | ≤ 100 nM | 100 to 1000 nM
N#CC1CCc2c1ncc(NC(=O)c1nc(-c3c(F)cccc3F)sc1N)c2N1CCC[C@H](N)C1 (single isomer, unassigned) [18 (Diastereoisomer 2)] | ≤ 100 nM | ≤ 100 nM | 100 to 1000 nM
COc1ccc(F)c(-c2nc(C(=O)Nc3cnc4c(c3N3C[C@H](C)C[C@H](N)C3)CCO4)ccc2F)c1F [Example 73, N-{4-[(3S,5R)-3-Amino-5-methylpiperidin-1-yl]-2,3-dihydrofuro[2,3-b]pyridin-5-yl}-6-(2,6-difluoro-3-methoxyphenyl)-5-fluoropyridine-2-carboxamide] | ≤ 100 nM | ≤ 100 nM | ≤ 100 nM
Nc1sc(-c2c(F)cccc2F)nc1C(=O)Nc1cnc2c(c1N1CCC[C@H](N)C1)CCC2=O [Example 20, 5-Amino-N-{4-[(3S)-3-aminopiperidin-1-yl]-7-oxo-6,7-dihydro-5H-cyclopenta[b]pyridin-3-yl}-2-(2,6-difluorophenyl)-1,3-thiazole-4-carboxamide] | ≤ 100 nM | ≤ 100 nM | ≤ 100 nM
C[C@H]1CN(c2c(NC(=O)c3nc(-c4c(F)cccc4F)sc3N)cnc3c2CCO3)C[C@@H](N)[C@@]1(C)O [Example 75, 5-Amino-N-{4-[(3R,4S,5S)-3-amino-4-hydroxy-4,5-dimethylpiperidin-1-yl]-2,3-dihydrofuro[2,3-b]pyridin-5-yl}-2-(2,6-difluorophenyl)-1,3-thiazole-4-carboxamide] | ≤ 100 nM | ≤ 100 nM | ≤ 100 nM
N[C@H]1CCCN(c2c(NC(=O)c3csc(-c4c(F)cccc4F)n3)cnc3ccsc23)C1 [Example 6, N-{7-[(3S)-3-Aminopiperidin-1-yl]thieno[3,2-b]pyridin-6-yl}-2-(2,6-difluorophenyl)-1,3-thiazole-4-carboxamide] | ≤ 100 nM | ≤ 100 nM | > 2000 nM
C[C@H]1CN(c2c(NC(=O)c3nc(-c4c(F)cccc4F)c(F)cc3N)cnc3c2CCC3O)C[C@@H](N)[C@@H]1O (single isomer, unassigned) [48 (Diastereoisomer 2)] | ≤ 100 nM | ≤ 100 nM | ≤ 100 nM
C[C@H]1CN(c2c(NC(=O)c3ccc(F)c(-c4c(F)cccc4F)n3)cnc3c2CCC3O)C[C@@H](N)[C@@H]1O (mixture of isomers) [Example 37, N-{4-[(3R,4R,5S)-3-Amino-4-hydroxy-5-methylpiperidin-1-yl]-7-hydroxy-6,7-dihydro-5H-cyclopenta[b]pyridin-3-yl}-6-(2,6-difluorophenyl)-5-fluoropyridine-2-carboxamide] | ≤ 100 nM | ≤ 100 nM | ≤ 100 nM
Nc1sc(-c2c(F)cccc2F)nc1C(=O)Nc1cnc2c(c1N1CCC[C@H](N)C1)CCC2 [Example 14, 5-Amino-N-{4-[(3S)-3-aminopiperidin-1-yl]-6,7-dihydro-5H-cyclopenta[b]pyridin-3-yl}-2-(2,6-difluorophenyl)-1,3-thiazole-4-carboxamide] | ≤ 100 nM | ≤ 100 nM | ≤ 100 nM
C[C@@H]1C[C@H](N)CN(c2c(NC(=O)c3nc(-c4c(F)cccc4F)c(F)cc3N)cnc3c2CCC3O)C1 (single isomer, unassigned) [46 (Diastereoisomer 2)] | ≤ 100 nM | ≤ 100 nM | ≤ 100 nM
Nc1sc(-c2c(F)cccc2F)nc1C(=O)Nc1cnc2c(c1N1C[C@@H](N)C[C@@H](C(F)(F)F)C1)CCC2O (single isomer, unassigned) [44 (Diastereoisomer 2)] | ≤ 100 nM | ≤ 100 nM | ≤ 100 nM
CC1(O)CCc2c1ncc(NC(=O)c1nc(-c3c(F)cccc3F)sc1N)c2N1CCC[C@H](N)C1 (single isomer, unassigned) [19 (Diastereoisomer 1)] | 100 to 1000 nM | ≤ 100 nM | > 2000 nM
Nc1sc(-c2c(F)cccc2F)nc1C(=O)Nc1cnc2ccsc2c1N1CCC[C@H](N)C1 [Example 5, 5-Amino-N-{7-[(3S)-3-aminopiperidin-1-yl]thieno[3,2-b]pyridin-6-yl}-2-(2,6-difluorophenyl)-1,3-thiazole-4-carboxamide] | ≤ 100 nM | ≤ 100 nM | ≤ 100 nM
Nc1cc(F)c(-c2c(F)cccc2F)nc1C(=O)Nc1cnc2c(c1N1CCC[C@H](N)C1)CCC2O (single isomer, unassigned) [23 (Diastereoisomer 1)] | ≤ 100 nM | ≤ 100 nM | ≤ 100 nM
N[C@H]1CCCN(c2c(NC(=O)c3ccc(F)c(-c4c(F)cccc4F)n3)cnc3c2CCC3=O)C1 [Example 50, N-{4-[(3S)-3-Aminopiperidin-1-yl]-7-oxo-6,7-dihydro-5H-cyclopenta[b]pyridin-3-yl}-6-(2,6-difluorophenyl)-5-fluoropyridine-2-carboxamide] | ≤ 100 nM | ≤ 100 nM | 100 to 1000 nM
C[C@H]1CN(c2c(NC(=O)c3ccc(F)c(-c4c(F)cccc4F)n3)cnc3c2CCC3O)C[C@@H](N)C1(C)O (single isomer, unassigned) [63 (Diastereoisomer 4)] | ≤ 100 nM | ≤ 100 nM | ≤ 100 nM

From patent US10265307B2, “Thiazolecarboxamides and pyridinecarboxamide compounds useful as Pim kinase inhibitors” (Incyte Corporation, priority 2013, dated 2019)
